# Laboratory results from PMC3692398 (Biochemical pharmacology, 2013).
# Like-named read-outs stand apart in the source and are kept apart here.
# Experiments:
# h5-HT2C receptor [1] = biological target: T1, h5-HT2C receptor (Homo sapiens, UniProt P28335); experiment: biochemical; assay type: binding; conditions: for Ki: read-out: Inhibition of radioligand binding Ki ± sem, h5-HT2C [125I]DOI
# T1 sequence (P28335 33-458): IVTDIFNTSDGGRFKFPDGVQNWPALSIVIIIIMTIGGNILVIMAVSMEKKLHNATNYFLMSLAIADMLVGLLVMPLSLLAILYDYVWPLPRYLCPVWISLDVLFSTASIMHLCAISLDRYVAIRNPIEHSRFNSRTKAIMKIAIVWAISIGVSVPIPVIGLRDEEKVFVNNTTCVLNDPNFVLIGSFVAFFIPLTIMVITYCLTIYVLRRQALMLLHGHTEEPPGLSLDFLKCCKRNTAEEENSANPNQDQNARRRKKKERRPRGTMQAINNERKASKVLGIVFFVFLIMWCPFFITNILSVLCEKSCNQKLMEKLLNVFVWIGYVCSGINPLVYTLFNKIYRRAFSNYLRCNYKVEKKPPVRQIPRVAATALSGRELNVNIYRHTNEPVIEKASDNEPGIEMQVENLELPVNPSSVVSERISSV
# hDAT [2] = biological target: T2, hDAT (Homo sapiens, UniProt Q01959); experiment: Inhibition of [125I]RTI-55 binding, HEK-hDAT membranes; conditions: read-out: Inhibition of [125I]RTI-55 binding Ki ± sem, hDAT; HEK-hDAT membranes
# T2 sequence (Q01959 whole entry): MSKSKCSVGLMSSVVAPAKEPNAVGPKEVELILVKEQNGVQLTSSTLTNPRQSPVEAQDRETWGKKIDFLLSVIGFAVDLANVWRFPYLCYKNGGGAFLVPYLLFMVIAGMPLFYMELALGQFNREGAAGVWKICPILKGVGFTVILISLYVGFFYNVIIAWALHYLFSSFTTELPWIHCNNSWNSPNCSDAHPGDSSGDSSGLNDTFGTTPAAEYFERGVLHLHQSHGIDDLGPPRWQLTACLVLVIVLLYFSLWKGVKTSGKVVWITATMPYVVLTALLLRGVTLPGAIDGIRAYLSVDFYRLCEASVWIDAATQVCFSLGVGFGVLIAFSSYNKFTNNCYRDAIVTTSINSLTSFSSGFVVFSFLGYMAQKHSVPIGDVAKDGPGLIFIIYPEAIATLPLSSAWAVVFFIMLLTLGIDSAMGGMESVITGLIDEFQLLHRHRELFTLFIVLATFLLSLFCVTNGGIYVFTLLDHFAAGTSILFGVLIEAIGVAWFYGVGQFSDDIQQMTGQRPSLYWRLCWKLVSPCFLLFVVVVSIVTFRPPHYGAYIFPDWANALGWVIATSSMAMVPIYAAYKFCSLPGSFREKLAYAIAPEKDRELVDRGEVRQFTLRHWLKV
# hNET [3] = biological target: T3, hNET (Homo sapiens, UniProt P23975); experiment: biochemical; assay type: binding; conditions: read-out: Inhibition of [125I]RTI-55 binding Ki ± sem, hNET
# T3 sequence (P23975 whole entry): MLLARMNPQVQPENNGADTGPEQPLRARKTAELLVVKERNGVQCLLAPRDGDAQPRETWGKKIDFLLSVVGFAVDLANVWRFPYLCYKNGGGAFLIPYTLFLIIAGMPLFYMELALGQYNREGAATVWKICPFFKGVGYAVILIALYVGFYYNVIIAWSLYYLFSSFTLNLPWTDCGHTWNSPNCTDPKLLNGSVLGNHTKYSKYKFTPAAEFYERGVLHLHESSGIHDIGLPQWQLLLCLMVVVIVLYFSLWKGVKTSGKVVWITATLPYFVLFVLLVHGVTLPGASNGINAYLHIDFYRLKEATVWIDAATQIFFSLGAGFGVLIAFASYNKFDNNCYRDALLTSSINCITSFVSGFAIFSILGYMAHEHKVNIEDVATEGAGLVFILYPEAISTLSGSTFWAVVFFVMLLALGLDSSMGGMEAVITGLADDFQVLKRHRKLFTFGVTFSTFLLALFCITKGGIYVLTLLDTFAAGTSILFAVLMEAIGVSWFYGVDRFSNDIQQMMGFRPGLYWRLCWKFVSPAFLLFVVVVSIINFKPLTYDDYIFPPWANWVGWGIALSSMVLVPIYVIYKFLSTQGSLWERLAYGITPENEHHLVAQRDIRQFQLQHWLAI
# hDAT [4] = biological target: T2, hDAT; experiment: Inhibition of [3H]DA uptake, intact HEK-hDAT cells; assay type: cell-based; conditions: for ratio of binding Ki to uptake IC50, hDAT: [125I]RTI-55 Ki / [3H]DA uptake IC50; for IC50: read-out: Inhibition of [3H]neurotransmitter uptake IC50 ± sem, hDAT [3H]DA, 20 nM [3H]DA, intact cells; for fold less potent at other target proteins than at biogenic amine transporters: other target proteins vs biogenic amine transporters
# hSERT [5] = biological target: T4, hSERT (Homo sapiens, UniProt P31645); experiment: Inhibition of [3H]5-HT uptake, intact HEK-hSERT cells; assay type: cell-based; conditions: for ratio of binding Ki to uptake IC50, hSERT: [125I]RTI-55 Ki / [3H]5-HT uptake IC50; for IC50: read-out: Inhibition of [3H]neurotransmitter uptake IC50 ± sem, hSERT [3H]5-HT, 20 nM [3H]5-HT, intact cells
# T4 sequence (P31645 whole entry): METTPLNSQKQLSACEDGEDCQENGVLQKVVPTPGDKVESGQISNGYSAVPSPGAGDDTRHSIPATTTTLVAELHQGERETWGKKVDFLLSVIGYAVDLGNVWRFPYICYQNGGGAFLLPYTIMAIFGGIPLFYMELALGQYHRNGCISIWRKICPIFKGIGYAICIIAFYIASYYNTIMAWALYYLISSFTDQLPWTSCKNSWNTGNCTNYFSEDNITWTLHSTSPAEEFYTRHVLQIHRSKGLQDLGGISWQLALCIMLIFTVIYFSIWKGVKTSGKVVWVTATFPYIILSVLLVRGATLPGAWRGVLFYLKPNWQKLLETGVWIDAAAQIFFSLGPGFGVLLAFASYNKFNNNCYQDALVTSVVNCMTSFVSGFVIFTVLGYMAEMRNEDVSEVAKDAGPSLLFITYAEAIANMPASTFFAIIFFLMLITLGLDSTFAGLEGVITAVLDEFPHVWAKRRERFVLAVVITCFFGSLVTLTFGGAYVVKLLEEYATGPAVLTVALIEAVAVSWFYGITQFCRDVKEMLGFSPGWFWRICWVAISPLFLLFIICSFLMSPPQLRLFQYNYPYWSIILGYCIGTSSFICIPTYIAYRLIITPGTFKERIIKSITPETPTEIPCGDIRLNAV
# hNET [6] = biological target: T3, hNET; experiment: cell-based; assay type: cell-based; conditions: for IC50: read-out: Inhibition of [3H]neurotransmitter uptake IC50 ± sem, hNET [3H]NE
# hDAT [7] = biological target: T2, hDAT; experiment: Superfusion release of preloaded [3H]DA from HEK-hDAT cells; assay type: cell-based; conditions: for releasing efficacy, hDAT [3H]DA: concentrations ranging from 1 nM to 100 µM; for EC50: read-out: Drug-induced release of [3H]neurotransmitter EC50 ± sem, hDAT [3H]DA, superfusion, AUC
# hSERT [8] = biological target: T4, hSERT; experiment: Superfusion release of preloaded [3H]5-HT from HEK-hSERT cells; assay type: cell-based; conditions: for EC50: read-out: Drug-induced release of [3H]neurotransmitter EC50 ± sem, hSERT [3H]5-HT, superfusion, AUC; for releasing efficacy, hSERT [3H]5-HT: concentrations ranging from 1 nM to 100 µM
# hNET [9] = biological target: T3, hNET; experiment: Superfusion release of preloaded [3H]NE from HEK-hNET cells; assay type: cell-based; conditions: for releasing efficacy, hNET [3H]NE: concentrations ranging from 10 nM to 100 µM; for EC50: read-out: Drug-induced release of [3H]neurotransmitter EC50 ± sem, hNET [3H]NE, superfusion, AUC; for % maximum release ± sem, hNET [3H]NE: relative to maximal AUC induced by METH (0.3 or 1 µM)
# hVMAT2 [10] = biological target: T5, hVMAT2 (Homo sapiens, UniProt Q05940); experiment: Inhibition of [3H]DHTB binding, HEK-hVMAT2 membranes; conditions: read-out: Inhibition of [3H]DHTB binding Ki ± sem, hVMAT2
# T5 sequence (Q05940 whole entry): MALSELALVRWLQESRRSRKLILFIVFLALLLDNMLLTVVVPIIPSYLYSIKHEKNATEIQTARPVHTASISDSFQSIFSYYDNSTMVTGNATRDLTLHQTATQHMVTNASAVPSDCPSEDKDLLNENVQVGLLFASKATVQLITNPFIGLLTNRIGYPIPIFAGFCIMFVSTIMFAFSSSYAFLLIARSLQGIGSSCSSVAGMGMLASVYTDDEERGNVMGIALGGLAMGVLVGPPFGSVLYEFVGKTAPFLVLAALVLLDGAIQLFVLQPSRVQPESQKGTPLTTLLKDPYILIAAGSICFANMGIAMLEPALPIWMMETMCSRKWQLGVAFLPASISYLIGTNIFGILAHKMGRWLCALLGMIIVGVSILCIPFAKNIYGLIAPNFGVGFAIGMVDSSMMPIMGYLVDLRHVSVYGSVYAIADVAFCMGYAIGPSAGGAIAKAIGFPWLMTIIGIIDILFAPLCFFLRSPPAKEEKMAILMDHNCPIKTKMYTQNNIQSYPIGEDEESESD
# hVMAT2 [11] = biological target: T5, hVMAT2; experiment: Inhibition of [3H]5-HT uptake, HEK-hVMAT2 membrane preparation; assay type: biochemical; conditions: read-out: Inhibition of [3H]5-HT uptake IC50 ± sem, hVMAT2; 40 nM [3H]5-HT, 2 mM MgATP
# hVMAT2 [12] = biological target: T5, hVMAT2; experiment: Superfusion release of preloaded [3H]NE from HEK-hVMAT2 cells; assay type: cell-based; conditions: for EC50: read-out: Drug-induced release of [3H]NE EC50 ± sem, hVMAT2, superfusion
# h5-HT1A receptor [13] = biological target: T6, h5-HT1A receptor (Homo sapiens, UniProt P08908); experiment: [3H]8-OH-DPAT binding, HEK-h5-HT1A; conditions: read-out: Inhibition of radioligand binding Ki ± sem, h5-HT1A [3H]8OH-DPAT
# T6 sequence (P08908 1-422): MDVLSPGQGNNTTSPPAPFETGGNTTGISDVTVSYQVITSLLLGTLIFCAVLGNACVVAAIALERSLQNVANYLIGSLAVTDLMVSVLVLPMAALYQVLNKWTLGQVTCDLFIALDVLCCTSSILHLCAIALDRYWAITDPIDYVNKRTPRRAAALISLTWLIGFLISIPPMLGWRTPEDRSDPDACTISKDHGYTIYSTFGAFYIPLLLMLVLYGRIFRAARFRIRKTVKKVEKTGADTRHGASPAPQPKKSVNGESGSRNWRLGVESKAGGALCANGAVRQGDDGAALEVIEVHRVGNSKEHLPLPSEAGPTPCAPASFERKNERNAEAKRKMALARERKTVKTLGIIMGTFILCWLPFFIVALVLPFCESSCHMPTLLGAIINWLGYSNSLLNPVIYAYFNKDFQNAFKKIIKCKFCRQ
# h5-HT2A receptor [14] = biological target: T7, h5-HT2A receptor (Homo sapiens, UniProt P28223); experiment: [125I]DOI binding, HEK-h5-HT2A; conditions: read-out: Inhibition of radioligand binding Ki ± sem, h5-HT2A [125I]DOI
# T7 sequence (P28223 whole entry): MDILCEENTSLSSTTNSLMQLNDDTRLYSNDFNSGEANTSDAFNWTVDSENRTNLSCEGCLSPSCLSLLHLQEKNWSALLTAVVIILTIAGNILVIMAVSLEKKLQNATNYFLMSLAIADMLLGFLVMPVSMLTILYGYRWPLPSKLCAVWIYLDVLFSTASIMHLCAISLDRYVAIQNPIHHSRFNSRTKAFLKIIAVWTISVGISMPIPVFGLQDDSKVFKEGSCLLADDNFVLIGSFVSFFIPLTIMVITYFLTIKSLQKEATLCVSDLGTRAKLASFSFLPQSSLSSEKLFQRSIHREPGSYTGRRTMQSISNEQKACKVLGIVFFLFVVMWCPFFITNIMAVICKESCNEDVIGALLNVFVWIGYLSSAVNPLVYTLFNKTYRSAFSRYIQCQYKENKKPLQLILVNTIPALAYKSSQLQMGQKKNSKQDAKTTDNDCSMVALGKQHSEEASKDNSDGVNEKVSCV
# h5-HT1A receptor [15] = biological target: T6, h5-HT1A receptor; experiment: Stimulation of [35S]GTPγS binding, HEK-h5-HT1A membranes; assay type: biochemical; conditions: for h5-HT1A Stimulation of [35S]GTPγS binding % maximum stimulation ± sem: normalized to the maximal stimulation by 5-HT; for EC50: read-out: h5-HT1A Stimulation of [35S]GTPγS binding EC50 ± sem
# h5-HT2A receptor [16] = biological target: T7, h5-HT2A receptor; experiment: Inhibition of 5-HT-stimulated IP-1 formation; assay type: cell-based; conditions: 100 nM 5-HT; for h5-HT2A Inhibition of 5-HT-stimulated IP-1 formation % maximum inhibition ± sem: normalized to maximal inhibition by ketanserin (10 µM); for IC50: read-out: h5-HT2A Inhibition of 5-HT-stimulated IP-1 formation IC50 ± sem
# h5-HT2C receptor [17] = biological target: T1, h5-HT2C receptor; experiment: Inhibition of 5-HT-stimulated IP-1 formation; assay type: cell-based; conditions: 100 nM 5-HT; normalized to maximal inhibition by SB242084 (1 µM)
# hSigma1 receptor = hSigma1 receptor (Homo sapiens, UniProt Q99720); experiment: [3H]; assay type: binding; conditions: read-out: Inhibition of [3H]pentazocine binding Ki ± sem, hSigma1
# hSigma1 receptor, sequence (Q99720 whole entry): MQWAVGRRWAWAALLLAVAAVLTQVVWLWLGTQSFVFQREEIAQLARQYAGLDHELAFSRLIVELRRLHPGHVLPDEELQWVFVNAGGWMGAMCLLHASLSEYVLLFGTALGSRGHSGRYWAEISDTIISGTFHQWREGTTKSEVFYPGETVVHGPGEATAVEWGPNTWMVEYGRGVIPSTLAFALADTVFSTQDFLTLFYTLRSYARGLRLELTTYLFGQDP
# [18] = blood from heart, periphery, and femoral veins; postmortem cases; ref [32];[33];[34]; cited from earlier work
# [19] = [125I]RTI-55 Ki / [3H]NE uptake IC50
Compound,Ki (hDAT [2]) [µM],"ratio of binding Ki to uptake IC50, hDAT (hDAT [4])",IC50 (hDAT [4]) [µM],"ratio of binding Ki to uptake IC50, hSERT (hSERT [5])",IC50 (hSERT [5]) [µM],"releasing efficacy, hDAT [3H]DA (hDAT [7])",EC50 (hDAT [7]) [µM],"% maximum release ± sem, hSERT [3H]5-HT (hSERT [8]) [%]",EC50 (hSERT [8]) [µM],"releasing efficacy, hNET [3H]NE (hNET [9])",EC50 (hNET [9]) [µM],"% maximum release ± sem, hNET [3H]NE (hNET [9]) [%]",Ki (hVMAT2 [10]) [µM],IC50 (hVMAT2 [11]) [µM],EC50 (hVMAT2 [12]) [µM],Ki (h5-HT1A receptor [13]) [µM],Ki (h5-HT2A receptor [14]) [µM],Ki (h5-HT2C receptor [1]) [µM],h5-HT1A Stimulation of [35S]GTPγS binding % maximum stimulation ± sem (h5-HT1A receptor [15]) [%],EC50 (h5-HT1A receptor [15]) [µM],also measured
"COc1cc(CC(C)N)c(OC)cc1I (racemic) [[^125I]DOI, (±)-1-(2,5,-dimethoxy-4-iodophenyl)-2-aminopropane, reference compound]",–,–,–,–,–,–,–,–,–,–,–,–,–,–,–,–,–,–,–,–,"Kd (h5-HT2C receptor [1]; read-out: Kd of radioligand, HEK-H5HT2C): 0.00418 ± 0.00046 µM"
CCC(NC)C(=O)c1ccc2c(c1)OCO2 (stereo not shown) [Butylone],1.73 ± 0.27,8.2,0.211 ± 0.054,5.3,1.97 ± 0.43,minimal releasing efficacy,> 10,30.1 ± 6.5,3.1 ± 1.4,minimal releasing efficacy,> 100,3.6 ± 2.2,730 ± 110,162 ± 55,4.4 ± 0.52,> 96,118 ± 17,41 ± 12,52 ± 13,440 ± 110,"Ki (hNET [3]; HEK-hNET membranes): 7.98 ± 0.55 µM; ratio of binding Ki to uptake IC50, hNET (hNET [6]; [19]): 7.5; IC50 (hNET [6]; 20 nM [3H]NE, intact cells): 1.06 ± 0.24 µM; % maximum release ± sem, hDAT [3H]DA (hDAT [7]): 5.4 ± 3.8%; Release of [3H]NE % maximum release ± sem or range, hVMAT2 (hVMAT2 [12]): 17.4 ± 1.1%; h5-HT2A Inhibition of 5-HT-stimulated IP-1 formation % maximum inhibition ± sem (h5-HT2A receptor [16]): 95.9 ± 4.1%; IC50 (h5-HT2A receptor [16]): 410 ± 110 µM; h5-HT2C Inhibition of 5-HT-stimulated IP-1 formation % maximum inhibition ± sem (h5-HT2C receptor [17]): 11 ± 12%; Ki (hSigma1 receptor): 7.9 ± 1.8 µM"
"CCCC(C(=O)c1ccc2c(c1)OCO2)N1CCCC1 (stereo not shown) [MDPV, 3,4-methylenedioxypyrovalerone]",0.0194 ± 0.0032,less than six,0.0126 ± 0.0024,less than six,1.38,minimal releasing efficacy,> 100,–,> 100,minimal releasing efficacy,> 100,18 ± 15,990 ± 270,> 100,148 ± 84,14.8 ± 3.8,207 ± 29,107 ± 30,69.0 ± 6.7,60.8 ± 8.4,"Ki (hNET [3]; HEK-hNET membranes): 0.107 ± 0.034 µM; fold less potent at other target proteins than at biogenic amine transporters (hDAT [4]): 60–350 fold; ratio of binding Ki to uptake IC50, hNET (hNET [6]; [19]): less than six; IC50 (hNET [6]; 20 nM [3H]NE, intact cells): 0.0188 ± 0.0021 µM; % maximum release ± sem, hDAT [3H]DA (hDAT [7]): 4.8 ± 5.3%; releasing efficacy, hSERT [3H]5-HT (hSERT [8]): minimal releasing efficacy; % maximum release ± sem, hSERT [3H]5-HT (hSERT [8]; relative to maximal AUC induced by PCA (10 µM)): 6.9 ± 2.1%; Release of [3H]NE % maximum release ± sem or range, hVMAT2 (hVMAT2 [12]): 35.8 ± 9.6%; h5-HT2A Inhibition of 5-HT-stimulated IP-1 formation % maximum inhibition ± sem (h5-HT2A receptor [16]): 67.7 ± 5.4%; IC50 (h5-HT2A receptor [16]): 270 ± 86 µM; h5-HT2C Inhibition of 5-HT-stimulated IP-1 formation % maximum inhibition ± sem (h5-HT2C receptor [17]): 24.5 ± 8.4%; Ki (hSigma1 receptor): 4.4 ± 1.7 µM; postmortem blood concentration [18]: 0.06 to 3.3 mg/L; postmortem blood concentration (molar) [18]: 0.25 to 14 µM"
"CCCC(C(=O)c1ccc2ccccc2c1)N1CCCC1 (stereo not shown) [Naphyrone, naphthylpyrovalerone]",0.0108 ± 0.00076,less than six,0.0126 ± 0.0031,less than six,0.0593 ± 0.0097,minimal releasing efficacy,> 100,20.1 ± 9.3,7.5 ± 3,minimal releasing efficacy,> 100,36 ± 18,119 ± 20,21.4 ± 7.1,> 100,4.64 ± 0.6,17.7 ± 2.6,23.2,80 ± 15,116 ± 30,"Ki (hNET [3]): 0.059 µM; fold less potent at other target proteins than at biogenic amine transporters (hDAT [4]): 60–350 fold; ratio of binding Ki to uptake IC50, hNET (hNET [6]): less than six; IC50 (hNET [6]): 0.035 µM; % maximum release ± sem, hDAT [3H]DA (hDAT [7]; relative to maximal AUC induced by METH (1 or 10 µM)): < 6%; releasing efficacy, hSERT [3H]5-HT (hSERT [8]): minimal releasing efficacy; Release of [3H]NE % maximum release ± sem or range, hVMAT2 (hVMAT2 [12]; relative to maximal AUC induced by METH (100 µM or 1 mM)): 34 ± 14%; Release of [3H]NE % maximum release ± sem or range, hVMAT2 (hVMAT2 [12]; relative to maximal AUC induced by METH (100 µM or 1 mM), listed as naphyrone): less than 35%; h5-HT2A Inhibition of 5-HT-stimulated IP-1 formation % maximum inhibition ± sem (h5-HT2A receptor [16]): 98.18 ± 0.94%; IC50 (h5-HT2A receptor [16]): 65 ± 11 µM; h5-HT2C Inhibition of 5-HT-stimulated IP-1 formation % maximum inhibition ± sem (h5-HT2C receptor [17]): 32 ± 14%; Ki (hSigma1 receptor): 0.509 ± 0.052 µM"
"CC(N)Cc1ccc(Cl)cc1 (stereo not shown) [PCA, p-chloroamphetamine, reference compound]",–,–,–,–,–,–,–,106.4 ± 2.0,0.8 ± 0.27,–,–,–,–,–,–,–,–,–,–,–,–
